The text below walks through data of US11667649B2, “Heteroaromatic macrocyclic ether chemotherapeutic agents” (Nuvalent, Inc., priority 2020, dated 2023).

For assay [1], the target named is T1, ALK L1196M/G1202R kinase domain (Homo sapiens, UniProt Q9UM73, G1202R/L1196M).
T1 construct: TRKA-wt (1 nM, BPS Bio, 40280) kinase domains in buffer; purchased SignalChem A19-12NG
The experiment in a line: Biochemical kinase assay, ALK L1196M/G1202R. The settings on record: 2 mM ATP substrate solution, read-out: Ki^app ALK-L1196M-G1202R. A digest of the protocol:
(§1)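 Kinase domains (in kinase solution: ROS1-G2032R 0.5 nM, ROS1-wt 0.6 nM, TRKA 1 nM, ALK L1196M/G1202R 3 nM) were mixed with compound and a substrate solution of 2 mM ATP plus 26 μM fluorogenic AQT0101 (ALK, ROS1) or AQT0104 (TRKA) in HEPES pH 7.5/MgCl2. Fluorescence was followed for 120 min at 30° C; Ki^app was obtained by Morrison fit of initial rates.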

For a further assay, the target named is T2, ALK-wt kinase domain (Homo sapiens, UniProt Q9UM73).
T2 construct: TRKA-wt (1 nM, BPS Bio, 40280) kinase domains in buffer; purchased Carna 08-518
The assay is described as follows: Biochemical kinase assay, ALK-wt. The note with it: 2 mM ATP substrate solution, read-out: Ki^app ALK-wt. A digest of the protocol: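 Apparent Ki values come from fitting initial reaction rates against inhibitor concentration to the Morrison equation. Rates were taken from the linear phase of fluorogenic substrate phosphorylation (AQT0101 for ALK and ROS1, AQT0104 for TRKA; 26 μM in substrate solution with 2 mM ATP), monitored at 485 nm over 120 min at 30° C.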

Assay [2] deals with T3, ROS1-G2032R kinase domain (Homo sapiens, UniProt P08922, G2032R).
T3 construct: TRKA-wt (1 nM, BPS Bio, 40280) kinase domains in buffer; purchased SignalChem R14-12BG
The assay is described as follows: Biochemical kinase assay, ROS1-G2032R. The settings on record: 2 mM ATP substrate solution, read-out: Ki^app ROS1-G2032R. A digest of the protocol: as §1

For another assay, the target named is T4, TRKA-wt kinase domain (Homo sapiens, UniProt P04629).
T4 construct: TRKA-wt (1 nM, BPS Bio, 40280) kinase domains in buffer; purchased BPS Bio 40280
The experiment in a line: Biochemical kinase assay, TRKA-wt. The settings on record: 2 mM ATP substrate solution, read-out: Ki^app TRKA-wt. A digest of the protocol: as §1

The next assay deals with T5, ROS1-wt kinase domain (Homo sapiens, UniProt P08922).
T5 construct: TRKA-wt (1 nM, BPS Bio, 40280) kinase domains in buffer; purchased Carna 08-163
The assay is described as follows: Biochemical kinase assay, ROS1-wt. The note with it: 2 mM ATP substrate solution, read-out: Ki^app ROS1-wt. A digest of the protocol: as §1

For the compound `COc1cc2n(n1)-c1ccc(F)cc1[C@@H](C)Oc1cc(cnc1N)-c1c(c(C)nn1CC1CC1)C2` [Compound 124], the Ki in assay [1] is under 0.05 µM; on ALK-wt kinase domain it was under 0.05 µM; in assay [2], under 0.05 µM; on TRKA-wt kinase domain it was 0.05 to 0.5 µM; at ROS1-wt kinase domain, under 0.05 µM.
As for `Cc1cc2n(n1)-c1ccc(F)cc1COc1cc(cnc1N)-c1c(cnn1CC1CC1)C2` [Compound 126], the Ki in assay [1] is under 0.05 µM; at ALK-wt kinase domain it was under 0.05 µM; in assay [2], under 0.05 µM; on TRKA-wt kinase domain, over 0.5 µM; at ROS1-wt kinase domain, under 0.05 µM.
`C[C@H]1Oc2cc(cnc2N)-c2c(nnn2CC2CC2)Cc2cc(C(F)(F)F)nn2-c2ccc(F)cc21` [Compound 128]: the Ki in assay [1] was under 0.05 µM; on ALK-wt kinase domain, under 0.05 µM; in assay [2] it was under 0.05 µM; at TRKA-wt kinase domain, 0.05 to 0.5 µM; on ROS1-wt kinase domain it was under 0.05 µM.
On to `C[C@H]1Oc2cc(cnc2N)-c2c(cnn2CC2CC2)Cc2cc(C(F)F)nn2-c2ccc(F)cc21` [Compound 130], for which the Ki in assay [1] was under 0.05 µM; on ALK-wt kinase domain, under 0.05 µM; in assay [2] it was under 0.05 µM; at TRKA-wt kinase domain, 0.05 to 0.5 µM; on ROS1-wt kinase domain, under 0.05 µM.
Turning to `C[C@H]1Oc2cc(cnc2N)-c2c(C#N)nn(C)c2Cc2cc(C(F)F)nn2-c2ccc(F)cc21` [Compound 132], the Ki was under 0.05 µM in assay [1]; under 0.05 µM at ALK-wt kinase domain; under 0.05 µM in assay [2]; 0.05 to 0.5 µM at TRKA-wt kinase domain; under 0.05 µM at ROS1-wt kinase domain.
Take `C[C@H]1Oc2cc(cnc2N)-c2c(c(Cl)nn2CC2CC2)Cc2cn(C)nc2-c2ccc(F)cc21` [Compound 133]: the Ki in assay [1] is under 0.05 µM; on ALK-wt kinase domain it was under 0.05 µM; in assay [2], 0.05 to 0.5 µM; on TRKA-wt kinase domain, over 0.5 µM; at ROS1-wt kinase domain, under 0.05 µM.
Regarding `Cc1nc2c(s1)Cc1c(C)nn(CC3CC3)c1-c1cnc(N)c(c1)O[C@H](C)c1cc(F)ccc1-2` [Compound 134], the Ki is under 0.05 µM in assay [1]; under 0.05 µM at ALK-wt kinase domain; under 0.05 µM in assay [2]; 0.05 to 0.5 µM at TRKA-wt kinase domain; under 0.05 µM at ROS1-wt kinase domain.
Consider `Cc1nn(CC2CC2)c2c1Cc1cccnc1-c1ccc(F)cc1[C@@H](C)Oc1cc-2cnc1N` [Compound 135], for which the Ki in assay [1] was under 0.05 µM; at ALK-wt kinase domain, under 0.05 µM; in assay [2] it was under 0.05 µM; at TRKA-wt kinase domain, 0.05 to 0.5 µM; at ROS1-wt kinase domain, under 0.05 µM.
`C[C@H]1Oc2cc(cnc2N)-c2c(cnn2CC2CC2)Cc2cccnc2-c2ccc(F)cc21` [Compound 137]: the Ki in assay [1] was under 0.05 µM; on ALK-wt kinase domain, under 0.05 µM; in assay [2], under 0.05 µM; on TRKA-wt kinase domain it was 0.05 to 0.5 µM; at ROS1-wt kinase domain, under 0.05 µM.
For `Nc1ncc2cc1OCc1cc(F)ccc1-n1nc(C(F)F)cc1Cc1cnn(CC3CC3)c1-2` [Compound 138], the Ki in assay [1] was under 0.05 µM; on ALK-wt kinase domain, under 0.05 µM; in assay [2], under 0.05 µM; at TRKA-wt kinase domain, over 0.5 µM; on ROS1-wt kinase domain, under 0.05 µM.
With `C[C@H]1Oc2cc(cnc2N)-c2c(cnn2C2COC2)Cc2cn(C)nc2-c2ccc(F)cc21` [Compound 139], the Ki in assay [1] is under 0.05 µM; on ALK-wt kinase domain it was under 0.05 µM; in assay [2], under 0.05 µM; at TRKA-wt kinase domain it was 0.05 to 0.5 µM; at ROS1-wt kinase domain, under 0.05 µM.
Consider `CCn1cc2c(n1)-c1ccc(F)cc1[C@@H](C)Oc1cc(cnc1N)-c1c(cnn1CC1CC1)C2` [Compound 140], for which the Ki in assay [1] was under 0.05 µM; on ALK-wt kinase domain, under 0.05 µM; in assay [2], under 0.05 µM; on TRKA-wt kinase domain, 0.05 to 0.5 µM; at ROS1-wt kinase domain, under 0.05 µM.
Take `Cc1cc2n(n1)-c1ccc(F)cc1[C@@H](C)Oc1cc(cnc1N)-c1c(c(C)nn1CC1CC1)C2` [Compound 141]: the Ki in assay [1] was under 0.05 µM; at ALK-wt kinase domain it was under 0.05 µM; in assay [2], under 0.05 µM; at TRKA-wt kinase domain, 0.05 to 0.5 µM; on ROS1-wt kinase domain, under 0.05 µM.
Turning to `C[C@H]1Oc2cc(cnc2N)-c2c(C#N)nn(C)c2Cc2csnc2-c2ccc(F)cc21` [Compound 143], the Ki in assay [1] is under 0.05 µM; on ALK-wt kinase domain, under 0.05 µM; in assay [2], under 0.05 µM; at TRKA-wt kinase domain, 0.05 to 0.5 µM; on ROS1-wt kinase domain it was under 0.05 µM.
Take `COc1cc2n(n1)-c1ccc(F)cc1[C@@H](C)Oc1cc(cnc1N)-c1c(nnn1CC1CC1)C2` [Compound 144]: the Ki in assay [1] is under 0.05 µM; on ALK-wt kinase domain, under 0.05 µM; in assay [2], under 0.05 µM; on TRKA-wt kinase domain, 0.05 to 0.5 µM; on ROS1-wt kinase domain, under 0.05 µM.
For the compound `CCn1ncc2c1-c1cnc(N)c(c1)O[C@H](C)c1cc(F)ccc1-c1nc(OC)ccc1C2` [Compound 145], the Ki in assay [1] is under 0.05 µM; at ALK-wt kinase domain, under 0.05 µM; in assay [2], under 0.05 µM; at TRKA-wt kinase domain, 0.05 to 0.5 µM; on ROS1-wt kinase domain, under 0.05 µM.
With `C[C@H]1Oc2cc(cnc2N)-c2c(CC3CC3)cnn2Cc2cccnc2-c2ccc(F)cc21` [Compound 146], the Ki was under 0.05 µM in assay [1]; under 0.05 µM at ALK-wt kinase domain; under 0.05 µM in assay [2]; 0.05 to 0.5 µM at TRKA-wt kinase domain; under 0.05 µM on ROS1-wt kinase domain.
Turning to `CCn1nc(OC)c2c1-c1cnc(N)c(c1)O[C@H](C)c1cc(F)ccc1-n1nc(C(F)F)cc1C2` [Compound 147], the Ki (in assay [1]; at ALK-wt kinase domain; in assay [2]; at TRKA-wt kinase domain; on ROS1-wt kinase domain) was under 0.05 µM in each case.
On to `CCn1nc(Br)c2c1-c1cnc(N)c(c1)O[C@H](C)c1cc(F)ccc1-c1nn(C)cc1C2` [Compound 148], for which the Ki in assay [1] was under 0.05 µM; at ALK-wt kinase domain, under 0.05 µM; in assay [2] it was 0.05 to 0.5 µM; on TRKA-wt kinase domain, over 0.5 µM; on ROS1-wt kinase domain it was under 0.05 µM.
Take `CCn1ncc2c1-c1cnc(N)c(c1)O[C@H](C)c1cc(F)ccc1-c1ncc(OC)cc1C2` [Compound 149]: the Ki (in assay [1]; at ALK-wt kinase domain; in assay [2]; on TRKA-wt kinase domain; at ROS1-wt kinase domain) was under 0.05 µM throughout.
Regarding `CCn1ncc2c1-c1cnc(N)c(c1)O[C@H](C)c1cc(F)ccc1-c1nn(C(C)(C)C)cc1C2` [Compound 150], the Ki in assay [1] was under 0.05 µM; on ALK-wt kinase domain, under 0.05 µM; in assay [2] it was under 0.05 µM; at TRKA-wt kinase domain, 0.05 to 0.5 µM; on ROS1-wt kinase domain it was under 0.05 µM.
Regarding `CCn1ncc2c1-c1cnc(N)c(c1)O[C@H](C)c1cc(F)ccc1-c1nccc(OC)c1C2` [Compound 151], the Ki (in assay [1]; on ALK-wt kinase domain; in assay [2]; at TRKA-wt kinase domain; at ROS1-wt kinase domain) was under 0.05 µM in each case.
For the compound `CCc1onc2c1-c1cnc(N)c(c1)O[C@H](C)c1cc(F)ccc1-c1nn(C)cc1C2` [Compound 152], the Ki (in assay [1]; at ALK-wt kinase domain; in assay [2]; on TRKA-wt kinase domain; on ROS1-wt kinase domain) was under 0.05 µM in each case.
Regarding `CCn1nc(C(C)C)c2c1-c1cnc(N)c(c1)O[C@H](C)c1cc(F)ccc1-c1nn(C)cc1C2` [Compound 153], the Ki (in assay [1]; at ALK-wt kinase domain; in assay [2]; on TRKA-wt kinase domain; at ROS1-wt kinase domain) was under 0.05 µM each time.
